Test [1] deals with Coronavirus (strain OC43). The test can be described thus: Virucidal Suspension Test (In-Vitro Time-Kill method) based upon ASTM E1052-20. As to the method:
(§1) The antiviral activities of Composition A and Composition B were evaluated by challenging them with two different viruses, Coronavirus (strain OC43, ZeptoMetrix Corp. #0810024CF) and Influenza A H1N1 (strain A/WS/33, ATCC #VR-1520). A Virucidal Suspension Test (In-Vitro Time-Kill method) based upon the ASTM E1052-20, “Standard Practice to Assess the Activity of Microbicides against Viruses in Suspension” was used. The percent and log10 reductions from the initial populations of the viral strains were determined following exposure to Compositions A and B at two different exposure times (2 minutes and 10 minutes).

For test [2], the system named is Influenza A H1N1 (strain A/WS/33). The test is described as above. As to the method: as §1

“Poly(L-lysine hydrochloride)-b-poly(D,L-leucine) [Composition A]”: the Log10 reduction is 0.25 log10 in test [1] (10 µg/mL, 2 min exposure); 0.5 log10 in test [1] (10 µg/mL, 10 min exposure); 0.25 log10 in test [1] (100 µg/mL, 2 min exposure); 0.5 log10 in test [1] (100 µg/mL, 10 min exposure); 0.5 log10 in test [1] (1000 µg/mL, 2 min exposure); 1 log10 in test [1] (1000 µg/mL, 10 min exposure). For the same substance, the Log10 reduction is on record as 0.25 log10 in test [2] (10 µg/mL, 2 min exposure); 0.50 log10 in test [2] (10 µg/mL, 10 min exposure); 0.75 log10 in test [2] (100 µg/mL, 2 min exposure); 0.75 log10 in test [2] (100 µg/mL, 10 min exposure); 0.75 log10 in test [2] (1000 µg/mL, 2 min exposure); 0.50 log10 in test [2] (1000 µg/mL, 10 min exposure). For the same substance, the Percent reduction worked out at 43.77% in test [1] (10 µg/mL, 2 min exposure); 68.38% in test [1] (10 µg/mL, 10 min exposure); 43.77% in test [1] (100 µg/mL, 2 min exposure); 68.38% in test [1] (100 µg/mL, 10 min exposure); 68.38% in test [1] (1000 µg/mL, 2 min exposure); 90% in test [1] (1000 µg/mL, 10 min exposure). Further, the Percent reduction in test [2] (10 µg/mL, 2 min exposure) is given as 43.77%; in test [2] (10 µg/mL, 10 min exposure) it was 68.38%; in test [2] (100 µg/mL, 2 min exposure), 82.22%; in test [2] (100 µg/mL, 10 min exposure), 82.22%; in test [2] (1000 µg/mL, 2 min exposure), 82.22%; in test [2] (1000 µg/mL, 10 min exposure), 68.38%.
With “Poly(L-lysine hydrochloride)-b-poly(L-leucine) [Composition B]”, the Log10 reduction came out at 0.25 log10 in test [1] (10 µg/mL, 2 min exposure); 1 log10 in test [1] (10 µg/mL, 10 min exposure); 0.75 log10 in test [1] (100 µg/mL, 2 min exposure); 0.75 log10 in test [1] (100 µg/mL, 10 min exposure); 0.5 log10 in test [1] (1000 µg/mL, 2 min exposure); 0.75 log10 in test [1] (1000 µg/mL, 10 min exposure). Further, the Log10 reduction in test [2] (10 µg/mL, 2 min exposure) turned out to be 0.75 log10; in test [2] (10 µg/mL, 10 min exposure), 0.75 log10; in test [2] (100 µg/mL, 2 min exposure), 0.50 log10; in test [2] (100 µg/mL, 10 min exposure), 0.50 log10; in test [2] (1000 µg/mL, 2 min exposure) it was 0.00 log10; in test [2] (1000 µg/mL, 10 min exposure), 1.00 log10. Moreover, the Percent reduction in test [1] (10 µg/mL, 2 min exposure) is recorded as 43.77%; in test [1] (10 µg/mL, 10 min exposure), 90%; in test [1] (100 µg/mL, 2 min exposure) it was 82.22%; in test [1] (100 µg/mL, 10 min exposure), 82.22%; in test [1] (1000 µg/mL, 2 min exposure), 68.38%; in test [1] (1000 µg/mL, 10 min exposure), 82.22%. For the same substance, the Percent reduction was 82.22% in test [2] (10 µg/mL, 2 min exposure); 82.22% in test [2] (10 µg/mL, 10 min exposure); 68.38% in test [2] (100 µg/mL, 2 min exposure); 68.38% in test [2] (100 µg/mL, 10 min exposure); 0.00% in test [2] (1000 µg/mL, 2 min exposure); 90.00% in test [2] (1000 µg/mL, 10 min exposure).
